For 5 molecules, IC50 results are on record in ChEMBL document CHEMBL1133120, “Synthesis and evaluation of isothiocyanate-containing derivatives of the delta-opioid receptor antagonist Tyr-Tic-Phe-Phe (TIPP) as potential affinity labels for delta-opioid receptors” (J Med Chem, 2000).

Assay [1] has as its target Delta-type opioid receptor (Mus musculus, UniProt P32300). As to the kind of experiment: Binding assay evaluated using […] radioligand in CHO cells transfected with mouse Opioid receptor delta 1. Format: cell-based.
Another assay addresses Mu-type opioid receptor (Rattus norvegicus, UniProt P33535). As to the kind of experiment: Binding assay evaluated using DAMGO radioligand in CHO cells transfected with rat Opioid receptor mu 1. Format: cell-based.

Where a SMILES comes first, the peptide text is derived from it. [ ]: non-standard residue; d: D form. Phe(4-NH2) = Nc1ccc(C[C@H](N)C(=O)O)cc1; Tic = O=C(O)[C@@H]1Cc2ccccc2CN1 Some results are limits rather than exact numbers.

Sequence of Mu-type opioid receptor (P33535 whole entry): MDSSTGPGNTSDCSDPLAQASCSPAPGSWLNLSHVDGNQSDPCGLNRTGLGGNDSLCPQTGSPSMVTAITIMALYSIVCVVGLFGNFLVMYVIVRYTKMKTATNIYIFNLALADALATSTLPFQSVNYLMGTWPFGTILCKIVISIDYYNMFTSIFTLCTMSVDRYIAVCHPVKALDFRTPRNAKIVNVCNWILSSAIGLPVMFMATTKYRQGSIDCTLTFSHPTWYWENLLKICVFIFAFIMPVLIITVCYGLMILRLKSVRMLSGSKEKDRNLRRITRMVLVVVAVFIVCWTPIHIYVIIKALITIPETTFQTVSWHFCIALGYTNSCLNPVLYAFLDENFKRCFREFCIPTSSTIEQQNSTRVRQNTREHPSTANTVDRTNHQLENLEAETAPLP
Sequence of Delta-type opioid receptor (P32300 whole entry): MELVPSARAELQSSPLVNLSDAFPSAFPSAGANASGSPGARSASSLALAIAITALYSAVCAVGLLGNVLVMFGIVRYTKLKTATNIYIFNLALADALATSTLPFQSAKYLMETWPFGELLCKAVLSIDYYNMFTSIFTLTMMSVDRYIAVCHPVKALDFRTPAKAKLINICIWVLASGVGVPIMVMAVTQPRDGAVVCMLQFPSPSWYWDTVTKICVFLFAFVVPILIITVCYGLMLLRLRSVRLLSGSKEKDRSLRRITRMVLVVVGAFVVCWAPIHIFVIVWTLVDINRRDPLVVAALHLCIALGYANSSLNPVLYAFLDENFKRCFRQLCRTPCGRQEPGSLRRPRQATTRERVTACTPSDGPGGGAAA

Consider `N[C@@H](Cc1ccc(O)cc1)C(=O)N1Cc2ccccc2C[C@H]1C(=O)N[C@@H](Cc1ccc(N=C=S)cc1)C(=O)N[C@@H](Cc1ccccc1)C(=O)O`, for which the IC50 is 12.4 nM in assay [1] and over 10000 nM at Mu-type opioid receptor.
The like results for `N[C@@H](Cc1ccc(O)cc1)C(=O)N1Cc2ccccc2C[C@H]1C(=O)N[C@@H](Cc1ccccc1)C(=O)N[C@@H](Cc1ccc(N=C=S)cc1)C(=O)O` were, in that order, 5.4 nM and over 10000 nM.
The like results for `N[C@@H](Cc1ccc(O)cc1)C(=O)N1Cc2ccccc2C[C@H]1C(=O)N[C@@H](Cc1ccccc1)C(=O)N[C@@H](Cc1ccccc1)C(=O)O` (H-Y[Tic]FF-OH) were, in that order, 5.8 nM and 22700 nM.
For `Nc1ccc(C[C@H](NC(=O)[C@H](Cc2ccccc2)NC(=O)[C@@H]2Cc3ccccc3CN2C(=O)[C@@H](N)Cc2ccc(O)cc2)C(=O)O)cc1` (H-Y[Tic]F[Phe(4-NH2)]-OH) the same measures were 11.8 nM and over 10000 nM.
With `Nc1ccc(C[C@H](NC(=O)[C@@H]2Cc3ccccc3CN2C(=O)[C@@H](N)Cc2ccc(O)cc2)C(=O)N[C@@H](Cc2ccccc2)C(=O)O)cc1` (H-Y[Tic][Phe(4-NH2)]F-OH), the IC50 is 87.7 nM in assay [1] and over 10000 nM at Mu-type opioid receptor.
